The numbers were not newly measured in patent publication US9814782B2, “Modified antibody in which motif comprising cysteine residue is bound, modified antibody-drug conjugate comprising the modified antibody, and production method for same” (Alteogen Inc., priority 2012, dated 2017), which cites them from elsewhere.

For this series the following is noted: known value; read-out: IC50 value in a cell proliferation inhibition assay.

Regarding Auristatin, the IC50 is 0.2 to 0.3 nM.
